Laboratory results: PMC8969299 (Chemical Engineering Journal, 2022)

How the values were obtained:
[1] = Fluorescence lifetime of COVID19-PEB before/after annealing; format: physicochemical; conditions: before annealing; Oligo-Cy3 and Oligo-BHQ2 fixed at 10 nmol; Fig. 3c
[2] = system: SARS-CoV-2; assay: Fluorescence
[3] = system: influenza A virus; assay: Fluorescence response of COVID19-PEB to influenza A virus; parameters: species or system influenza A (pH1N1) virus (Human/Canada/2009); conditions: COVID 19-PEB 10 nmol in 100 µL; 25 °C; n = 3; Fig. 4d
[4] = system: influenza B virus; assay: Fluorescence response of COVID19-PEB to influenza B virus; parameters: species or system influenza B viruses (Victoria Brisbane/20/2009); conditions: COVID 19-PEB 10 nmol in 100 µL; 25 °C; n = 3; Fig. 4e
[5] = system: HCoV-OC43; assay: Fluorescence response of COVID19-PEB to HCoV-OC43; parameters: species or system Human coronavirus OC43 (HCoV-OC43); conditions: COVID 19-PEB 10 nmol in 100 µL; 25 °C; n = 3; Fig. 4f
[6] = system: SARS-CoV-2; assay: Fluorescence detection of SARS-CoV-2 in biofluids; conditions: 10% nasal fluid and 10% saliva; n = 3; Fig. 5
[7] = system: SARS-CoV-2; assay: Detection of SARS-CoV-2 in clinical patient samples using COVID19-PEB
[8] = system: SARS-CoV-2 and its variants
[9] = molecular target: SARS-CoV-2 S protein RBD (Severe acute respiratory syndrome coronavirus 2, UniProt P0DTC2)

In the case of “Cy3-TTTTGGGGG- I EEQA KTFL DKFN HEAE DLFY QSSL ASWK-CCCCCAAAA-BHQ2 [COVID19-PEB]”, the fluorescence lifetime [1] is reported as 2.23 ± 0.02 ns, the “detection time, SARS-CoV-2” value ([2]; COVID19-PEB) is reported as at most 3 h and the “detection time, SARS-CoV-2 (shortest stated)” value ([2]; COVID19-PEB) is reported as at most 50 min. The “time within which intensity change could be measured, SARS-CoV-2” value ([2]; COVID 19-PEB 10 nmol, Fig. S4) was at most 1 h, the “detection limit, SARS-CoV-2” value ([2]; COVID19-PEB fluorescence, 100 µL test) was 4 × 10^3 plaque-forming unit/test and the “change in fluorescence signal, influenza A virus” value [3] was “no change in fluorescence signal was observed”. The “change in fluorescence signal, influenza B virus” value [4] was “no change in fluorescence signal was observed”, the “change in fluorescence signal, HCoV-OC43” value [5] was “no change in fluorescence signal was observed” and the “detection of SARS-CoV-2 in biofluid” value [6] was “efficiently detected SARS-CoV-2 in the biofluid, with high sensitivity”. The “detection of virus in PCR-confirmed patient samples” value [7] was “accurately detected the virus”, the “discrimination among genetic mutations in SARS-CoV-2” value [8] was “does not effectively discriminate among the genetic mutations in SARS-CoV-2” and the “detection of SARS-CoV-2 and its variants” value ([8]; Fig. S5) was “useful for sensitive and rapid detection of SARS-CoV-2 and its variants”. For the same substance, the “fluorescence intensity with increasing concentration of S proteins” value [9] was “gradually increased with the increasing concentration of the S proteins” and the “time within which intensity change could be measured, S protein RBD” value [9] was at most 1 h.
